Some test systems named below: OVCAR-4; HCT-116; ACHN; NCI-H460; M14; SK-MEL-28; U-251; UO-31; SK-MEL-5; OVCAR-8; HOP-62; UACC-62; NCI-H226; 786-0; OVCAR-3; SNB-19; HCC 2998.
Holding throughout (assay): NCI anticancer screen, dose series, 48 h

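Each compound was tested at five concentrations against cells in 96-well plates for 48 hours. Here, GI50 denotes the concentration required for 50% inhibition of growth.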 Calls of active or inactive are those of the source. Rule as the data show it: active = GI50 up to about 1.1 µM and inactive = higher. Where only a bound is given, the exact number is not on record here.

With `Cn1cnc(CCc2ccccc2)n1`, the GI50 with OVCAR-4, in the test with HCT-116, in the test on ACHN, in the test on NCI-H460, in the test on M14 and in the test with SK-MEL-28 was > 100 µM (inactive) throughout. The GI50 in the test on U-251, with UO-31, in the test with SK-MEL-5, in the test on OVCAR-8, in the test with HOP-62 and with UACC-62 was > 100 µM (inactive) throughout. For the same molecule, the GI50 in the test on NCI-H226, in the test on 786-0 and in the test on OVCAR-3 was > 100 µM (inactive) each time.

As to `COC(=O)[C@@H]1CCCCC[C@H]2C(CO)=C(C)C(=O)C12` (some centres not stated), the GI50 in the test with OVCAR-4, in the test on SNB-19, in the test on HCT-116, with ACHN, in the test with HCC 2998 and in the test on NCI-H460 was > 100 µM (inactive) throughout. Also, the GI50 in the test with M14, with SK-MEL-28, in the test on U-251, in the test with UO-31, in the test on SK-MEL-5 and in the test with OVCAR-8 was > 100 µM (inactive) throughout. For the same molecule, the GI50 is > 100 µM (inactive) with HOP-62, > 100 µM (inactive) in the test with UACC-62, 99.1 µM (inactive) in the test on NCI-H226 and > 100 µM (inactive) in the test on 786-0.

Turning to `O=C(CC(=O)C(=O)Nc1ccccc1)CC(c1ccccc1)c1c(O)c2ccccc2oc1=O` (configuration not stated), the GI50 in the test with SNB-19, in the test with HCT-116, in the test with ACHN, with HCC 2998, in the test with NCI-H460 and with M14 was > 100 µM (inactive) each time. Further, the GI50 in the test on SK-MEL-28, with UO-31, in the test with SK-MEL-5, in the test with UACC-62, with NCI-H226 and with 786-0 was > 100 µM (inactive) each time. Further, the GI50 with OVCAR-3 was > 100 µM (inactive).

Regarding `O=C(NCCCCCCNC(=O)NC1OCC(O)C(O)C1O)NC1OCC(O)C(O)C1O` (configuration not stated), the GI50 is > 100 µM (inactive) with OVCAR-4; < 0.01 µM (active) in the test with SNB-19; > 100 µM (inactive) with HCT-116; > 100 µM (inactive) in the test with ACHN; > 100 µM (inactive) with NCI-H460; > 100 µM (inactive) in the test with M14. Also, the GI50 in the test with SK-MEL-28, with U-251, with SK-MEL-5, in the test with OVCAR-8, in the test with HOP-62 and with UACC-62 was > 100 µM (inactive) in each case. The GI50 in the test with NCI-H226, in the test on 786-0 and in the test with OVCAR-3 was > 100 µM (inactive) each time.

In the case of `N#Cc1ccc(Sc2nc3ccccc3[nH]2)cc1`, the GI50 was > 100 µM (inactive) with OVCAR-4; > 100 µM (inactive) in the test on SNB-19; > 100 µM (inactive) in the test with ACHN; 79.6 µM (inactive) in the test on NCI-H460; > 100 µM (inactive) with SK-MEL-28; > 100 µM (inactive) in the test with U-251. Further, the GI50 in the test on UO-31 is > 100 µM (inactive); in the test with SK-MEL-5, 34.4 µM (inactive); in the test on OVCAR-8, > 100 µM (inactive); in the test on HOP-62 it was > 100 µM (inactive); with UACC-62, 41.7 µM (inactive); in the test with NCI-H226, 36.6 µM (inactive). In addition, in the test on 786-0, the GI50 is > 100 µM (inactive).

As for `O=C(CC1S/C(=N\c2ccccc2Cl)NC1=O)Nc1ccc(Cl)cc1` (configuration not stated), the GI50 with OVCAR-4 is 38.9 µM (inactive); with SNB-19, > 100 µM (inactive); in the test on HCT-116 it was > 100 µM (inactive); in the test on ACHN, > 100 µM (inactive); with HCC 2998, > 100 µM (inactive); in the test on NCI-H460, > 100 µM (inactive). Besides, the GI50 in the test with M14, with SK-MEL-28, in the test on U-251, in the test with UO-31, with SK-MEL-5 and with HOP-62 was > 100 µM (inactive) each time. Further, the GI50 with UACC-62 and with 786-0 was > 100 µM (inactive) each time.

Take `O=C1C[C@@H]2[C@@H](C=CC23CC3)N1O`: the GI50 in the test with OVCAR-4, in the test with SNB-19, with HCT-116, with HCC 2998, with NCI-H460 and with M14 was > 100 µM (inactive) each time. Moreover, the GI50 with SK-MEL-28, with U-251, in the test with UO-31, with SK-MEL-5, in the test on OVCAR-8 and with HOP-62 was > 100 µM (inactive) throughout. Further, the GI50 with UACC-62, with NCI-H226 and in the test with 786-0 was > 100 µM (inactive) in each case.

As to `ClCCC[Si]12OCCN(CCO1)CCO2`, the GI50 in the test with SNB-19, with HCT-116, in the test on ACHN, in the test with HCC 2998, in the test with NCI-H460 and in the test on SK-MEL-28 was > 100 µM (inactive) each time. In addition, the GI50 in the test with U-251, with UO-31, in the test with SK-MEL-5, in the test on OVCAR-8, in the test on UACC-62 and in the test with NCI-H226 was > 100 µM (inactive) in each case. Besides, the GI50 in the test with 786-0 and in the test on OVCAR-3 was > 100 µM (inactive) throughout.

Regarding `Cc1cc(C)c(C(=O)O)c(SSc2cc(C)cc(C)c2C(=O)O)c1`, the GI50 in the test on OVCAR-4, with SNB-19, with ACHN, in the test with NCI-H460, in the test on SK-MEL-28 and in the test on U-251 was > 100 µM (inactive) in each case. The GI50 in the test on UO-31, with SK-MEL-5, in the test on OVCAR-8, with HOP-62, with UACC-62 and with NCI-H226 was > 100 µM (inactive) each time. The GI50 with 786-0 is > 100 µM (inactive).

For `C=C1C(OC(=O)/C=C/c2ccccc2)CC(OC(C)=O)C2(C)C1CC1CC(OC(C)=O)C(C)=C(C(OC(C)=O)C2OC(C)=O)C1(C)C` (configuration not stated), the GI50 is > 100 µM (inactive) with SNB-19; 3.79 µM (inactive) in the test with HCT-116; 7.71 µM (inactive) in the test on HCC 2998; 6.67 µM (inactive) in the test with NCI-H460; > 100 µM (inactive) with M14; > 100 µM (inactive) in the test on U-251. Moreover, the GI50 with UO-31 is > 100 µM (inactive); in the test with SK-MEL-5, 4.1 µM (inactive); in the test with OVCAR-8 it was > 100 µM (inactive); in the test on HOP-62 it was > 100 µM (inactive); with UACC-62 it was > 100 µM (inactive); in the test on NCI-H226, > 100 µM (inactive). Besides, the GI50 in the test on 786-0 is > 100 µM (inactive).

Take `CCc1cccc(C(C)C)c1NC(=O)C(=O)CC(=O)c1c(C)[n+]([O-])c2ccccc2[n+]1[O-]`: the GI50 in the test with OVCAR-4 was > 100 µM (inactive); with SNB-19 it was > 100 µM (inactive); with HCT-116, > 100 µM (inactive); in the test with ACHN it was 77.6 µM (inactive); with HCC 2998 it was > 100 µM (inactive); with NCI-H460 it was > 100 µM (inactive). In addition, the GI50 in the test on M14, in the test with SK-MEL-28, in the test with U-251, with UO-31, in the test with SK-MEL-5 and in the test on OVCAR-8 was > 100 µM (inactive) in each case. Also, the GI50 in the test on HOP-62, in the test on UACC-62, in the test with NCI-H226 and in the test on 786-0 was > 100 µM (inactive) throughout.

With `CN(C)CCS/C(=N\c1ccccc1)n1cccc1`, the GI50 in the test with OVCAR-4 was > 100 µM (inactive); in the test with SNB-19 it was > 100 µM (inactive); in the test with HCT-116 it was > 100 µM (inactive); in the test on ACHN it was 78.5 µM (inactive); in the test with NCI-H460, > 100 µM (inactive); in the test on M14, > 100 µM (inactive). In addition, the GI50 in the test on SK-MEL-28 is > 100 µM (inactive); with U-251, > 100 µM (inactive); in the test with UO-31 it was 32.2 µM (inactive); in the test on SK-MEL-5 it was 35.9 µM (inactive); with OVCAR-8 it was > 100 µM (inactive); with HOP-62, 25.7 µM (inactive). Besides, the GI50 in the test with UACC-62 was 82.8 µM (inactive); with NCI-H226, 22.3 µM (inactive); in the test on 786-0, > 100 µM (inactive); with OVCAR-3 it was > 100 µM (inactive).

Turning to `COc1ccc(/C=C2\N=C(c3ccccc3)N(Nc3nnc(NN4C(=O)/C(=C/c5ccc(OC)cc5)N=C4c4ccccc4)c4ccccc34)C2=O)cc1`, the GI50 in the test with OVCAR-4 is 53.2 µM (inactive); in the test on SNB-19, > 100 µM (inactive); in the test with HCT-116, 94.4 µM (inactive); with ACHN, > 100 µM (inactive); in the test on NCI-H460, > 100 µM (inactive); in the test on M14, > 100 µM (inactive). The GI50 is 71.1 µM (inactive) with SK-MEL-28; 94.8 µM (inactive) in the test on U-251; 48.5 µM (inactive) in the test on SK-MEL-5; > 100 µM (inactive) in the test on OVCAR-8; 62.7 µM (inactive) in the test on HOP-62; 70.5 µM (inactive) in the test on UACC-62. The results for the GI50 in the test with NCI-H226 and with 786-0 were 96.4 µM (inactive) and 56.9 µM (inactive), respectively.

For the origin of these results see ChEMBL document CHEMBL1201862, “PubChem BioAssay data set” (2004).
